In article PMC7726444 (Frontiers in Pharmacology, 2020):

Key:
WT human TH = target: T1, WT human TH (Homo sapiens, UniProt P07101); assay: TH enzymatic activity assay (selectivity); assay type: biochemical; details: up to a concentration of 100 µM
T1 construct: made in house
Procedure: (§1) Full-length WT TPH1 and TPH2 were expressed as N-terminal six-His-maltose-binding protein fusion proteins in pETM-41 and were cleaved and purified as described previously ([McKinney et al., 2004]; [Winge et al., 2007]). Human WT PAH and TH were expressed and isolated as described previously ([Flydal et al., 2012]; [Bezem et al., 2016]).
(§2) Purified WT human TPH2, PAH, and TH were used for this purpose, and the activity assays for each enzyme was performed as described previously ([Haavik and Flatmark, 1980]; [Winge et al., 2007]; [Aubi et al., 2015]; [Bezem et al., 2016]).

CD-1 mice = assay: Tail suspension test; assay type: in vivo, mouse; details: 100 mg/kg i.p. once daily for 4 days, test 20 h after last dose, 6 min trial; p = 0.028, Mann-Whitney test
Excerpt: Male CD-1 mice (Janvier Labs, Le Genest-St-Isle, France), 3 months of age were used. The animals in the different treatment groups were matched for age. The University of Barcelona’s Committee on Animal Use and Care approved the protocol. Animals were housed and tested in compliance with the guidelines described in the Guide for the Care and Use of Laboratory Animals ([Clark et al., 1997]) and following the European Union directives (2010/63/EU), FELASA and ARRIVE guidelines. All efforts were made to minimize animal suffering and the number of animals used. All animals were housed in groups of five in standard cages with ad libitum access to food and water and maintained under a 12-h dark/light cycle (starting at 7:30 AM), 22°C temperature, and 66% humidity. […] While all treated animals were tested in the tail suspension test, brain tissue from eight of the vehicle-treated and nine of the omeprazole-treated mice was used for subsequent analysis of 5-HT content. Serum samples for 5-HT analysis were drawn from another nine vehicle-treated and eight omeprazole-treated mice.
Immobility time in the tail suspension test is known to be sensitive to manipulations that alter brain 5-HT content ([Garcia-Miralles et al., 2016]; [Palucha-Poniewiera et al., 2017]). […] Each animal was suspended for 6 min and the time spent immobile during suspension was counted using a stopwatch. […]

[1] = parameters: method as in Wu and Delamere, 1997; details: dissociation of the protonated pyridine nitrogen; ref Wu and Delamere, 1997; cited from earlier work
WT human PAH = target: T2, WT human PAH (Homo sapiens, UniProt P00439); assay: PAH enzymatic activity assay (selectivity); assay type: biochemical; details: up to a concentration of 100 µM
T2 construct: made in house
T2 sequence (P00439 1-452): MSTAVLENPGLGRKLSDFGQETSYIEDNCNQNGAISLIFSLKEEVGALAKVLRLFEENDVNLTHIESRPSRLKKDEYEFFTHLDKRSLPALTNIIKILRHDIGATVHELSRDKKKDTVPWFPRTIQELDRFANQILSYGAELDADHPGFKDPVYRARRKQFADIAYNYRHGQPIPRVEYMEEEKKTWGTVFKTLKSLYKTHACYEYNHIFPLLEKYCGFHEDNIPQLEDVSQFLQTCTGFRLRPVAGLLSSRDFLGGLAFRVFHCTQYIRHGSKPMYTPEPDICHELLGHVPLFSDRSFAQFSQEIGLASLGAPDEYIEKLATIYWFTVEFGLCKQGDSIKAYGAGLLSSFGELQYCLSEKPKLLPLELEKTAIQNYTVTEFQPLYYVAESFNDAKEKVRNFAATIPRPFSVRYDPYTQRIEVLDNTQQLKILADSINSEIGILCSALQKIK
Procedure: as §1, §2

full-length WT TPH1 = target: T3, full-length WT TPH1 (Homo sapiens, UniProt P17752); assay: Tryptophan hydroxylase enzymatic activity assay, full-length WT TPH1; assay type: biochemical; details: (95% confidence interval)
T3 construct: made in house
T3 sequence (P17752 1-444): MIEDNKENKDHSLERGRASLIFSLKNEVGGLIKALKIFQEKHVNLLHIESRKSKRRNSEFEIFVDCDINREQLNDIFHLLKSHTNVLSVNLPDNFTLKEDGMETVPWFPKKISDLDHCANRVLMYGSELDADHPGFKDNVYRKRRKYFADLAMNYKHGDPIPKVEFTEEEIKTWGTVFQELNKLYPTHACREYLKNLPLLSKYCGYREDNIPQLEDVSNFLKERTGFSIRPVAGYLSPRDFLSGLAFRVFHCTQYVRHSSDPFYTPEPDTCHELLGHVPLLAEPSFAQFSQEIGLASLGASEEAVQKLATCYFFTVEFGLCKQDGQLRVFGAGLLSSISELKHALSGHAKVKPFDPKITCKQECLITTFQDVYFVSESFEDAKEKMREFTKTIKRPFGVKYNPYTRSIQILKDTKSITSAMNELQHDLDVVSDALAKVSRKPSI
Excerpt: The […] human TPH1 gene was cloned into the pET23a vector (six-His C-terminal fusion; Merck KGaA, Darmstadt, Germany) between the NdeI and XhoI restriction sites, and expressed and purified as described previously ([Wang et al., 2002]; [Betari et al., 2020]). Truncated TPH1 was used since the full-length enzyme tends to aggregate in bacteria and yeast extracts and during purification ([Wang et al., 2002]; [McKinney et al., 2005]), resulting in a much lower protein yield compared to the truncated version. Enzymatic activity of truncated TPH1 is equal to that of the full-length protein ([Betari et al., 2020]). […] Full-length WT TPH1 and TPH2 were expressed as N-terminal six-His-maltose-binding protein fusion proteins in pETM-41 and were cleaved and purified as described previously ([McKinney et al., 2004]; [Winge et al., 2007]). Human WT PAH and TH were expressed and isolated as described previously ([[…] et al., 2012]; [Bezem et al., 2016]). […] Control experiments were performed in the presence of 1% DMSO in the absence of ligand. […] 5-hydroxy tryptophan (5-OH-Trp) was quantified using High Performance Liquid Chromatography (HPLC) essentially as described previously with minor modifications ([McKinney et al., 2004]; [[…] et al., 2020]).

T1 sequence (P07101 1-497 isoform P07101-3): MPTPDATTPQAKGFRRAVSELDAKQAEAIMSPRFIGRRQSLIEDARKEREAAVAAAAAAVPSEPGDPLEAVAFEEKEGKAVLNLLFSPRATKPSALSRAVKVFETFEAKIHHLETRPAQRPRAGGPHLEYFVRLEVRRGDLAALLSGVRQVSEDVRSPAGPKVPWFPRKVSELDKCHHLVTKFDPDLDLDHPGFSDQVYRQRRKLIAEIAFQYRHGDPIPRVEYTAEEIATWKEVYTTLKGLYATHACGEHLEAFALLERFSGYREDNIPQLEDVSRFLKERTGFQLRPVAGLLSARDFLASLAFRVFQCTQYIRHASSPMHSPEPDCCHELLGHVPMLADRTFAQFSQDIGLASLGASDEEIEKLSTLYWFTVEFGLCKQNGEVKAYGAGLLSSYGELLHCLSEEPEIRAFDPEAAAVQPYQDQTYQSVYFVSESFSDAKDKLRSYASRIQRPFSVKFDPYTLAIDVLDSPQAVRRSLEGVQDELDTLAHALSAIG

inhibition of TH (WT human TH): no inhibition | inhibition of PAH (WT human PAH): no inhibition | IC50 (full-length WT TPH1): 3.55 µM
SMILES: COc1ccc2[nH]c([S+]([O-])Cc3ncc(C)c(OC)c3C)nc2c1 (centres unmarked) [Omeprazole]
time spent immobile in tail suspension test vs vehicle (CD-1 mice): significantly less time immobile | pKa [1]: 7.1
